Patent publication US20040022870A1, “Immunogenic TLP composition” (priority 1996, published 2004)
Where a SMILES comes first, the peptide text is derived from it.

What was measured:
[1] = test system: TLP antigen on primary NSCLC culture cells; assay: Induction of TLP antigen expression on tumor cells by chemotherapy in vitro; format: cell-based, human; conditions: 10:g/ml for 48 hours; for TLP status of TLP-positive cell population after treatment: etoposide and cis-platinum
Source text: The cells were processed fresh and after preparation of primary cultures (complete RPMI 1640 culture medium with the addition of FCS 10%).
Along with variation in TLP, other possible phenotype modifications (IL-2 rec (interleukin receptors), HLA-Dr (human leukocyte antigen), CD16 (lymphocyte sub-populations), etc.) induced by treatment with single or combined agents (chemotherapy, cytokines) were also studied.
In the case of TLP, freshly isolated tumor cells were obtained from a surgical NSCLC patient. After plating for 24 h and separation of fibroblasts, cells were resuspended for immunohistochemistry and cytofluorimetric assay. Briefly, CSH 419 antiserum was labeled with PE conjugated anti-rabbit IgG and incubated with the cells.
The freeing of TLP in the culture supernatant was checked using the ELISA test.

[2] = test system: cytotoxic CD8 lymphocytes; assay: Stimulation of cytotoxic CD8 lymphocytes by synthetic polypeptide; format: cell-based, human; conditions: only in patients suffering from NSCLC neoplasia

| Structure (SMILES) | TLP status of TLP-negative cell population after treatment [1] | TLP status of TLP-positive cell population after treatment [1] | stimulation of cytotoxic CD8 lymphocytes [2] |
| --- | --- | --- | --- |
| N.N.[Cl][Pt][Cl] [cis-platinum] | became TLP-positive | remained TLP positive | – |
| CC[C@H](C)[C@H](NC(=O)[C@H](CO)NC(=O)[C@H](C)NC(=O)[C@H](CCC(=O)O)NC(=O)[C@H](CCCCN)NC(=O)[C@H](CC(N)=O)NC(=O)[C@@H](NC(=O)[C@@H](N)CCCNC(=N)N)[C@@H](C)O)C(=O)O [SEQ ID NO: 1, ArgThrAsnLysGluAlaSerIle] (H-RTNKEASI-OH; N-terminus and C-terminus assumed) | – | – | specific stimulation of the cytotoxic CD8 lymphocytes |
| COc1cc([C@@H]2c3cc4c(cc3[C@@H](O[C@@H]3O[C@@H]5CO[C@@H](C)O[C@H]5[C@H](O)[C@H]3O)[C@H]3COC(=O)[C@H]23)OCO4)cc(OC)c1O [etoposide] | became TLP-positive | remained TLP positive | – |
